Source: PMC11891579, “Fluorescent PyrAte-(S)-citalopram conjugates enable imaging of the serotonin transporter in living tissue” (Chemical Science, 2025)

Legend:
[1] = biological target: T1, hNET (Homo sapiens, UniProt P23975); test: radioligand uptake inhibition assay ([3H]MPP+); type: cell-based; conditions: for IC50: HEK293 stably expressing hNET, 20 nM [3H]MPP+, mean and SD, N = 3-6, read-out: IC50, uptake inhibition at NET (hNET); for Hill coefficient nH at NET: uptake inhibition curve
T1 construct: expressed in transfected cells
T1 sequence (P23975 whole entry): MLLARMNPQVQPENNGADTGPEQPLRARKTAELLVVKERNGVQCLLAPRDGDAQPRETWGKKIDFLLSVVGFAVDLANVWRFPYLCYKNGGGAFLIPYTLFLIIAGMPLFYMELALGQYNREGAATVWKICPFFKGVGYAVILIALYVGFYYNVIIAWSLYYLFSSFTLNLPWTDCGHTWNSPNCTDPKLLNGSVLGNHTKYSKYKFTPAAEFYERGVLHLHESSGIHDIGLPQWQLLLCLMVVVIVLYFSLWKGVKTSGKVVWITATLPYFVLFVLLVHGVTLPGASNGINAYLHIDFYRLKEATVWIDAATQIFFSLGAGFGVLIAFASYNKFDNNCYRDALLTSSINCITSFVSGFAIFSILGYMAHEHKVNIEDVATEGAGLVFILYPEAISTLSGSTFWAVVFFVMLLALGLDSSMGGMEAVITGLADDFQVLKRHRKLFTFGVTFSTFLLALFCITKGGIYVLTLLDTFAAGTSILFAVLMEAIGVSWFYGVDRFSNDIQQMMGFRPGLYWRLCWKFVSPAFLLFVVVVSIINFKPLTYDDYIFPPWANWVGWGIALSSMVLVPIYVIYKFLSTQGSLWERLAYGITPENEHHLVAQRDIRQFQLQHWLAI
Method: (§1) 1. Biological characterization
(§2) 1.1. Experimental methods
(§3) Buffer and solution compositions (in mM) are as follows:
(§4) Krebs-HEPES buffer (KHB): 120 NaCl, 3 KCl, 2 CaCl2, 2 MgCl2, 20 glucose, 10 HEPES NaOH, pH = 7.3 – 7.4. […]
(§5) 10 mM glucose, 1.25 mM NaH2PO4, pH = 7.4 (oxygenated with 95% O2, 5% CO2).
(§6) Human embryonic kidney 293 cells (HEK293) stably expressing the mCherry-tagged, YFP-tagged, and GFP-tagged human isoforms of SERT (mCherry-SERT, YhSERT, GhSERT), DAT (YhDAT), NET (hNET), and OCT3 (YhOCT3) were cultured in Dulbecco's modified Eagle's medium (DMEM) with high glucose (4.5 g/L) and l-glutamine (584 mg/L), supplemented with 10% fetal calf serum (FCS), 100 units/mL penicillin and 100 µg/mL streptomycin. The cells were cultured in a humidified atmosphere (37 °C, 5% CO2). Geneticin (50 µg/mL), Blasticidin (6 µg/mL), and Zeocin® (150 µg/mL) were added to maintain the selection pressure for the stable cell lines. Cells were typically seeded 24 hours prior to the experiments.
(§7) For uptake inhibition experiments, cells were seeded at 3.6 x 10^4 cells/0.2 mL into 96-well plates coated […]
(§8) with poly-d-lysine (PDL). […]
(§9) For uptake inhibition experiments, the cell medium was aspirated and the cells were washed once with 0.2 mL/well KHB at room temperature. The cells were pre-incubated with increasing concentrations of the substance of interest, diluted in KHB (0.05 mL/well). The pre-incubation solution was replaced with 0.05 mL/well KHB solution still containing the substance of interest and additionally the tritiated substrate (100 nM [3H]DA for YhDAT; 100 nM [3H]5HT for YhSERT; 20 nM and 50 nM [3H]MPP+ for hNET and YhOCT3), after 6 minutes (YhSERT), 5 minutes (YhDAT, hNET), or 10 minutes (YhOCT3). Substrate uptake was stopped after one minute (for [3H]DA and [3H]5HT), three minutes, or […]
ten minutes (for [3H]MPP+), by exchange of the substrate-containing buffer with 0.2 mL ice-cold KHB.
The KHB was aspirated immediately. Cells were lysed and prepared for [3H] content analysis by adding 0.2 mL Ultima Gold™ XR liquid scintillation cocktail. Measurements were performed in a 1450 MicroBeta microplate liquid scintillation counter. Non-specific uptake was determined in the presence of 30 µM paroxetine (for YhSERT), 50 µM GBR12909 (for YhDAT and hNET), or 100 µM decynium-22 (for YhOCT3). […]

[2] = biological target: T2, YhOCT3 (Homo sapiens, UniProt O75751); test: radioligand uptake inhibition assay ([3H]MPP+); type: cell-based; conditions: for IC50: HEK293 stably expressing YhOCT3, 50 nM [3H]MPP+, mean and SD, N = 3-6, read-out: IC50, uptake inhibition at OCT3 (YhOCT3); for Hill coefficient nH at OCT3: uptake inhibition curve
T2 construct: expressed in transfected cells
T2 sequence (O75751 1-556): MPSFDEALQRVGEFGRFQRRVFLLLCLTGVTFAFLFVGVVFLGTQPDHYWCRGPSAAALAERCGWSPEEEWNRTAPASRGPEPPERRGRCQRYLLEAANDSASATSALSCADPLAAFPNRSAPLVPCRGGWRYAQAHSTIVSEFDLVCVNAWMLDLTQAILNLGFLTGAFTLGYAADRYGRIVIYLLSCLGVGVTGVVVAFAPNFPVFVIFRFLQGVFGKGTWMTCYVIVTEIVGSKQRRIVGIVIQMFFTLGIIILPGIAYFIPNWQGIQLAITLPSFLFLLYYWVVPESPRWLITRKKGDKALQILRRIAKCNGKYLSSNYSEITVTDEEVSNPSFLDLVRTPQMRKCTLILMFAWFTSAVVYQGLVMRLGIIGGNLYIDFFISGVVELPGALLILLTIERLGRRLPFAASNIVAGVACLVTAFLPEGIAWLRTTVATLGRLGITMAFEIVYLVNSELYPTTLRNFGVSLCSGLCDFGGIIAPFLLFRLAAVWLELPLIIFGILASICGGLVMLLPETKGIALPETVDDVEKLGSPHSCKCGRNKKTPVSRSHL
Method: as §1, §2, §3, §4, §5, §6, §7, §8, §9
The KHB was aspirated immediately. […] Non-specific uptake was determined in the presence of 30 µM paroxetine (for YhSERT), 50 µM GBR12909 (for YhDAT and hNET), or 100 µM decynium-22 (for YhOCT3). […]
[3H]-imipramine, and increasing concentrations of test compound, for 60 min at 20 – 22 °C. […] The amount of radioactivity in the filters was measured using a Tri-Carb 2800TR liquid scintillation analyzer (PerkinElmer). The Ki was calculated from the measured IC50 using the Cheng-Prusoff equation.
Prior to imaging, cell culture medium was replaced with pre-warmed KHB. […] PyrAtes were excited using a 405 nm laser, and its fluorescent signals collected using 525/50 nm emission filters; mCherry was excited using a 561 nm laser, and fluorescence was collected using 595/50 nm emission filters. […]
5HT-mediated currents were measured at room temperature (20-25°C) using whole-cell patch clamp in HEK293 cells stably expressing SERT. […]

[3] = photophysical properties in aqueous media; type: physicochemical; conditions: PBS:DMSO 99:1 v/v; for Quantum yield: C153 as internal standard
Description: Table S5. Photophysical properties of PyrAte-(S)-citalopram conjugates in aqueous media (PBS:DMSO
99:1 v/v). C153 (coumarin 153) was used as internal standard for the measurement of quantum yield.
Compound λmax (nm) λEm (nm) Stokes shift ε at λmax Quantum Brightness (at λmax,
(nm) (M-1 cm-1) yield 103 M-1 cm-1)

IC50 [1] | Hill coefficient nH at NET [1] | IC50 [2] | Hill coefficient nH at OCT3 [2] | Brightness (at λmax) [3] | Stokes shift [3] | ε at λmax [3] | λEm [3] | λmax [3] | Quantum yield [3] | Compound
10.9 µM | −1.0 | 3.32 µM | −2.1 | 24.0 103 M-1 cm-1 | 88 nm | 30000 M⁻¹ cm⁻¹ | 493 nm | 405 nm | 0.82 | CCN(CC)c1ccc(-c2cc[n+]3c(-c4ccccc4)c(N4CCCC4)n(CCCC(=O)NCc4ccc5c(c4)CO[C@@]5(CCCN(C)C)c4ccc(F)cc4)c3c2)cc1 [PYR-C3-CIT, PyrAte-C3-(S)-citalopram]
12.6 µM | −1.3 | 2.1 µM | −2.3 | 27.0 103 M-1 cm-1 | 87 nm | 39600 M⁻¹ cm⁻¹ | 493 nm | 406 nm | 0.69 | CCN(CC)c1ccc(-c2cc[n+]3c(-c4ccccc4)c(N4CCCC4)n(CCCCCCC(=O)NCc4ccc5c(c4)CO[C@@]5(CCCN(C)C)c4ccc(F)cc4)c3c2)cc1 [PYR-C6-CIT, PyrAte-C6-(S)-citalopram]
